Several values for one entry are separate records, joined by “and”; a condition that tells them apart may be missing. Identical values can stand only once. Peptide text beside a SMILES is read from it.
Key:
[1] = test system: BALB/c mice; assay: Ear pinna injury, ear punch closure; type: in vivo, mouse
Description: Experiments were performed on 8–12 week-old female BALB/c (24 mice in total) and C57BL/6 mice (36 mice in total). All mice originated from the Centre for Experimental Medicine of the Medical University of Białystok, Poland, and were kept in the animal facility at the Nencki Institute of Experimental Biology throughout the course of the study. After delivery to the Nencki Institute animal facility, mice rested for at least two weeks for acclimatization before starting the experiment. Experiments were approved by the First Local Ethics Committee in Warsaw (permit No. 491/2013 and 542/2018). Animal experimentation was performed in accordance with EU directive 2010/63/EU, and all experiments were undertaken in such a way as to minimize discomfort and the number of animals used in the study.
Mice were placed individually in separate cages, weighed, and randomly divided into two groups within each mouse strain: The treatment group and the control group. Before the study all mice were randomly given numerical equivalents, and all experimenters performing further analysis were not aware of the experimental group and referred solely to those numbers. Similarly, vials containing IM (treatment) or saline (control) were encrypted and assigned to particular mice, so the person performing injections and ear photographs was not aware of mice background. Lastly, the person quantifying each ear hole closure was not aware of the group. Numerical equivalents of each mice were only decrypted at the end of the study. Before study each animal was anesthetized with Isoflurane (Iso-Vet; Piramal, UK), ears were quickly disinfected with 70% isopropanol and circular punches 2 mm in diameter were made in the center of both ear pinnae using disposable biopsy punches (Integra Miltex; Integra Life Sciences, Princeton, NJ, USA). Due to some occasional self-inflicted injuries (tearing off one or both ear lobes) during the course of the study, the measurement data from destroyed lobes were excluded from comparisons of the next time points. […]
To monitor the progress of wound healing, ears were photographed on the day of the injury (day 0, before and right after pinna injury), and on days 7, 14, 21, 28, 35, and 42. […] Finally, the area of the wound hole was outlined by hand on digitized images as an overlay, and the hole areas in the ears were evaluated using computer-assisted image analysis (ImageJ Software). […] The final number of analyzed ears was 23 per group on day 42. […] The final number of analyzed ears on day 42 was 32 in the control group and 16 in the treatment group. […]

[2] = test system: human lymphocyte cultures; details: cited from earlier work
From the text: Peptides play an important role in immunology, often through being epitopes for adaptive immune systems. Besides, they take part in mobilizing immune cells. […] Unfortunately, application of synthetic peptides can lead to unwanted immune activation or allergies and immunogenicity or immune-related adverse effects can limit the effectiveness of peptide-based therapies [[35],[36],[37 ...

[3] = test system: primary fibroblast cell cultures; assay: Transcript levels by qPCR; type: cell-based, human; details: 0.1 µg/mL, 48 h, 2^−ΔCt relative to Actb and Tbp (Figure 5)
Description: Cell stimulation was performed as previously described. Primary fibroblasts after the third passage and ASCs after the second passage were cultured in appropriate DMEM medium supplemented with 10% FBS for 24 h. Then, the medium was changed for DMEM with 5% FBS and 24-h incubation was performed. After another medium change for serum-free, cells were stimulated with IM peptide (0.1 µg/mL) for 48 h. Cell cultures deprived of FBS for 48 h were used as a control. After stimulation, the cells were trypsinized, collected, and centrifuged, and the pellet was kept frozen (−80 °C) for transcriptome analysis and transcript level analysis.
RNA was extracted using an RNeasy Mini kit (Qiagen, Cat. No. 74104, Hilden, Germany). RNA quality and concentrations were examined with a NanoDrop 2000 spectrophotometer. cDNA synthesis was performed in a reaction mixture containing 200 ng of RNA, 100 pmoles of oligo dT20, 4 µl of 5× reaction buffer (250 mM Tris-HCl, 375 mM KCl, 15 mM MgCl2, and 50 mM DTT), and 200 units of Maxima Reverse Transcriptase (ThermoScientific Bio. Cat. No. EP0742, Waltham, MA USA), at a final volume of 20 µl. PCR reactions were carried out on a LightCycler LC96 device (Roche, Basel, Switzerland), at a final volume of 10 µl containing 5 µl of FastStart Essential DNA Green Master (Roche, Cat. No. 06402712001, Basel, Switzerland), 1 µl of cDNA, and 0.25 µl each of forward and reverse primer (10 µM). The primer sequences are listed in Supplementary Table S4. The transcript levels were determined using the 2^−ΔCt method relative to Actb and Tbp.

[4] = test system: HaCaT keratinocytes; assay: Chemotaxis assay, ThinCert inserts; type: cell-based, human; details: 0.1 and 1 µg/mL, 24 h, serum-free; n=12 (Figure S7B)
Description: The effect of IM on cell chemotaxis was assessed with ThinCert cell culture inserts (8 μm, Greiner Bio-One, Kremsmünster, Austria). Cells were starved overnight in serum-free high-glucose DMEM and then seeded on inserts placed in a 24-well plate, at a density of 100,000 cells, in serum-free medium. Culture medium with appropriate concentrations of IM was then added to the wells of the plate and incubated for 24 h. The cells were stained with 8 μM Calcein-AM (BD Pharmingen), then migratory cells were detached with typsin-EDTA (Sigma-Aldrich, St. Louis, MO, USA). Detached cells were transferred to another plate and read with a fluorescence plate reader at an excitation wavelength of 485 nm and an emission wavelength of 520 nm.

Which “histology of the epidermis in healed ear pinna” value ([1]; 42 days after injury, hematoxylin and eosin) does the source give for `CC(C)[C@H](NC(=O)[C@H](CCCCN)NC(=O)[C@H](CC(=O)O)NC(=O)[C@@H](N)CCCNC(=N)N)C(=O)N[C@@H](Cc1ccc(O)cc1)C(=O)N[C@@H](CCCNC(=N)N)C(=O)O` [IM, H-Arg-Asp-Lys-Val-Tyr-Arg-OH] (H-RDKVYR-OH) here?
Its value is “signs of parakeratosis”.

What about the “mean ear hole area” value ([1]; day 42 post-injury, 2 mm punch, s.c. 5.0 µg/g, 10 injections, mean ± SD, saline control 1.96 ± 0.48) of the same compound?
Its value is 1.69 ± 0.38 mm^2.

And the “wound closure (ear hole closure)” value ([1]; day 42 post-injury, s.c. 5.0 µg/g, 10 injections, mean ± SD, saline control 37.9% ± 14.2%)?
Its value is 46.2% ± 12.2% and 46%.

And the “tissue repair in comparison to control” value ([1]; ear pinna injury, as summarised in the abstract)?
The value was 8%.

What about the “synthesis of IgE” value [2] of the same compound?
Its value is “suppress the synthesis”.

What about the “production of IgM, IgG, and IgA” value ([2]; following stimulation with pokeweed mitogen) of the same compound?
The value was “increase the production”.

What about the “transcriptional response of POU5F1” value ([3]; fibroblasts from all three donors) of the same compound?
The value was “very strong induction”.

What about the “transcriptional response of TET1” value ([3]; primary fibroblasts) of the same compound?
Its value is “high activation”.

What about the “transcriptional response of TET3” value ([3]; primary fibroblasts) of the same compound?
The value was “high activation”.

And the “inhibition of chemotaxis with respect to the control” value [4]?
The value was 10–20%.

From PMC7355430, “Imunofan—RDKVYR Peptide—Stimulates Skin Cell Proliferation and Promotes Tissue Repair” (Molecules, 2020)
